Results reported in US12661353B2, “SPT5 inhibitors and uses thereof” (Yeda Research and Development Co. Ltd., priority 2020, dated 2026).

System: replication-dependent histone genes
Experiment: RNA-seq after 24-h treatment: replication-dependent histone genes
Format: cell-based, human
Design: HIST1H2AH level, RNA-seq / HIST1H2AI level, RNA-seq / HIST1H2AK level, RNA-seq / HIST1H2AL level, RNA-seq / HIST1H2BF level, RNA-seq / HIST1H3A level, RNA-seq / HIST1H3B level, RNA-seq / HIST1H3D level, RNA-seq: scale not given here
Settings: SPI-21 24 h
Procedure: High-throughput sequencing of the total, labeled and Run-On transcripts (RNA-Seq and Gro-seq)—_The RNA-Seq libraries were prepared by the Genomics unit in The Nancy and Stephen Grand Israel National Center for Personalized Medicine (G-INCPM, Weizmann Institute of Science). Samples from 2-hour SPI treatment were prepared using in-house mRNA Seq protocol and polyA capturing and those from 24-hpur and 4sU treatments were prepared using the same protocol w/o PolyA capture (with random hexamers), and sequenced using an Illumina HiSeq 2500 system yielding about 30M SE reads of 61 bases. The GRO-seq RNA samples were reverse transcribed and amplified (15 cycles) using in-house mRNA Seq protocol w/o PolyA capture (with random hexamers) and sequenced in one lane using an Illumina HiSeq High Output (480 million reads, yielding more than 100M SE reads of 47 bases per sample). Each RNA-Seq analysis was carried out using two independent replicates.
RNA-Seq and GRO-seq Bioinformatics analysis—_For the analysis of the 24 h, 4sU and GRO-seq data, we used the RNA-Seq pipeline of UTAP (Kohen et al. 2019) to determine the differentially expressed genes. For the 2-hour data, reads were mapped to the H. sapiens GRCh38 reference genome using STAR (Dobin et al., 2013) and expression levels for each gene were quantified using htseq-count (Anders et al., 2015). Differentially expressed genes were identified using DESeq2 (Love et al., 2014). […] The reads coverage was calculated using bed files containing the desired genomic regions and orientation (awk command) and the bedtools coverage tool (Quinlan et al., 2010).
Since the RNA-seq following treatment with SPI-21 detects only polyadenylated transcripts and the treatment was effected for 2 hours, during which only a fraction of cells is in S-phase, an effect on histone genes was not found. Thus, to investigate further the regulation of histone genes by Spt5 using the identified SPIs, cells were treated for 24 hours with SPI-21 or SPI-18, to allow all cells to pass S-phase at least once. Following, mRNA was extracted and cDNA was prepared using random hexamers and the levels of 4 histone genes were determined. […] Spt5 requirement for expression of histone genes cannot be explained by a positive effect on elongation or mRNA processing since histone genes are very short and are intron-less. […] To resolve the discrepancy between the effect of Spt5 inhibition on steady-state levels and synthesis rate, the possibility that Spt5 is required for the processing of histone mRNAs was considered. In addition to the conserved stem-loop, histone genes have a canonical polyadenylation signal downstream of the stem-loop structure (FIG. 5B). It was therefore considered that Spt5 controls the choice between 3′ end processing via the stem-loop pathway or the polyadenylation pathway of histone pre-mRNAs. To this end, cDNA prepared by random hexamer and Poly-T the ratio between total and poly-A tailed histone genes was determined. […] Thus, the reduction in the histone gene expression upon Spt5 inhibition may be associated, at least in part, to a defect in 3′ end processing.

COc1ccc(C=CC(=O)c2cc(O)ccc2O)cc1 [SPI-21]
0.4: HIST1H1B level, RNA-seq | HIST1H2AG level, RNA-seq | HIST1H3A level, RNA-seq | HIST1H3D level, RNA-seq
0.7: HIST1H4C level, RNA-seq | HIST1H4H level, RNA-seq
0.3: HIST2H3D level, RNA-seq
0.5: HIST1H1E level, RNA-seq | HIST1H2AH level, RNA-seq | HIST1H2AI level, RNA-seq | HIST1H2AL level, RNA-seq | HIST1H2BF level, RNA-seq | HIST1H3B level, RNA-seq | HIST1H3F level, RNA-seq | HIST1H3G level, RNA-seq | HIST1H4A level, RNA-seq | HIST1H4B level, RNA-seq | HIST1H4D level, RNA-seq | HIST2H2AC level, RNA-seq
0.6: HIST1H2AK level, RNA-seq
